Data on one compound can be found in paper PMC6379152 (Cellular microbiology, 2018).

For this assay, the system named is rHSGGT1 (HSGGT1). The assay is described as follows: pNA release at […] nm, Michaelis-Menten fit. In kind it is biochemical, Helicobacter saguini. The following applies: 20 mM glycylglycine as acceptor; Tris-HCl pH 8; 37 C; mean of three batches.

For `N[C@@H](CCC(=O)Nc1ccc([N+](=O)[O-])cc1)C(=O)O` [GpNA, L-y-glutamyl-p nitroanilide], the Km amounted to 12.3 ± 2.35 µM.
